For experiment [1], the species on record is Rattus norvegicus. Kind of experiment: Compound was tested for its ability to stimulate bone calcium resorption in serum relative to 1,25(OH)2D3 in rats at a dose of 200 ng/rat. The format is functional, organism-based.
For experiment [2], the species on record is Rattus norvegicus. Kind of experiment: Compound was tested for its ability to stimulate intestinal calcium absorption relative to 1,25(OH)2D3 in rats at a dose of 25ng/rat, expressed as Ca (serosal) /Ca (mucosal). It is filed as functional.
Experiment [3] is filed under the species Rattus norvegicus. Put plainly: Compound was tested for its ability to stimulate bone calcium resorption in serum relative to 1,25(OH)2D3 in rats at a dose of 100 ng/rat. It is filed as functional, organism-based.
The species entered for experiment [4] is Rattus norvegicus. Kind of experiment: Compound was tested for increase in plasma calcium concentration in rats. It is filed as functional, organism-based.
The species entered for experiment [5] is Rattus norvegicus. Kind of experiment: Compound was tested for its ability to stimulate intestinal calcium absorption relative to 1,25(OH)2D3 in rats at a dose of 200ng/rat, expressed as Ca (serosal) /Ca (mucosal). The format is functional.
The species entered for experiment [6] is Rattus norvegicus. Put plainly: Compound was tested for its ability to stimulate bone calcium resorption in serum relative to 1,25(OH)2D3 in rats at a dose of 50 ng/rat. The format is functional, organism-based.
The species entered for experiment [7] is Rattus norvegicus. Kind of experiment: Compound was tested for its ability to stimulate intestinal calcium absorption relative to 1,25(OH)2D3 in rats at a dose of 50ng/rat, expressed as Ca (serosal) /Ca (mucosal). It is filed as functional.
The species named for experiment [8] is Rattus norvegicus. Put plainly: Compound was tested for its ability to stimulate bone calcium resorption in serum relative to 1,25(OH)2D3 in rats at a dose of 25 ng/rat. The format is functional, organism-based.
The species entered for experiment [9] is Rattus norvegicus. Kind of experiment: Compound was tested for its ability to stimulate intestinal calcium absorption relative to 1,25(OH)2D3 in rats at a dose of 100ng/rat, expressed as Ca (serosal) /Ca (mucosal). The format is functional.
Experiment [10] is filed under the species Rattus norvegicus. Kind of experiment: Compound was tested for regulation of kidney VDR in rats. It is filed as functional.
Experiment [11] is filed under the species Rattus norvegicus. Put plainly: Compound was tested for its ability to stimulate bone calcium resorption in rats at a dose of 12.5 ng/rat. It is filed as functional, organism-based.

Take `C=C1/C(=C\C=C2/CCC[C@]3(C)[C@@H]([C@H](C)/C=C/[C@H](CO)C(C)(C)O)CC[C@@H]23)C[C@@H](O)C[C@@H]1O`: the Serum Ca2+ in experiment [1] was determined as 4 mg/dL; in experiment [3], 3.8 mg/dL; in [6] it was 4.2 mg/dL; in experiment [8], 4.1 mg/dL. The Ratio in experiment [2] is 2.17; in experiment [5] it was 3.21; in [7] it was 2.08; in experiment [9], 2.22. The Plasma Ca2+ in experiment [4] worked out at 10.5 mg/dL. The “Kidney VDR” value in [10] is listed as 249 fM (mg of protein)-1.
Regarding `C=C1/C(=C\C=C2/CCC[C@]3(C)[C@@H]([C@H](C)CCCC(C)(C)O)CC[C@@H]23)C[C@@H](O)C[C@@H]1O`, in experiment [4], the Plasma Ca2+ is 10.6 mg/dL. The Serum Ca2+ in experiment [11] turned out to be 4.6 mg/dL.
